Test results reported in ChEMBL document CHEMBL3259789, “Indothiazinone, an indolyl thiazolyl ketone from a novel myxobacterium belonging to the Sorangiineae” (J Nat Prod, 2014).
In brackets after ≈: the same amount, converted by molar mass. Activity calls are given as the source filed them. No cut-off for these calls is given here.

Columns and labels:
[1] = system: Micrococcus luteus; experiment: Antimicrobial activity against Micrococcus luteus DSM 20030 at 6.7 to 67 ug/ml by serial dilution method; format: functional, organism-based
[2] = system: Chromobacterium violaceum; experiment: Antimicrobial activity against Chromobacterium violaceum DSM 30191 by serial dilution method; format: functional
[3] = system: Schizosaccharomyces pombe; experiment: Antimicrobial activity against Schizosaccharomyces pombe DSM 70572 at 6.7 to 67 ug/ml by serial dilution method; format: functional, organism-based
[4] = system: Bacillus subtilis; experiment: Antimicrobial activity against Bacillus subtilis DSM 10 by serial dilution method; format: functional
[5] = system: Mucor hiemalis; experiment: Antimicrobial activity against Mucor hiemalis DSM 2656 by serial dilution method; format: functional
[6] = system: Escherichia coli; experiment: Antimicrobial activity against Escherichia coli DSM 1116 at 6.7 to 67 ug/ml by serial dilution method; format: functional, organism-based
[7] = system: Staphylococcus aureus; experiment: Antimicrobial activity against Staphylococcus aureus DSM 346 by serial dilution method; format: functional
[8] = system: Rhodotorula glutinis; experiment: Antimicrobial activity against Rhodotorula glutinis DSM 10134 by serial dilution method; format: functional
[9] = system: Candida albicans; experiment: Antimicrobial activity against Candida albicans DSM 1665 by serial dilution method; format: functional
[10] = system: Wickerhamomyces anomalus; experiment: Antimicrobial activity against Pichia anomala DSM 6766 at 6.7 to 67 ug/ml by serial dilution method; format: functional, organism-based
[11] = system: Pseudomonas aeruginosa; experiment: Antimicrobial activity against Pseudomonas aeruginosa DSM 50071 by serial dilution method; format: functional, organism-based
[12] = system: Bacillus subtilis; experiment: Antimicrobial activity against Bacillus subtilis DSM 10 at 6.7 to 67 ug/ml by serial dilution method; format: functional, organism-based
[13] = system: Chromobacterium violaceum; experiment: Antimicrobial activity against Chromobacterium violaceum DSM 30191 at 6.7 to 67 ug/ml by serial dilution method; format: functional, organism-based
[14] = system: Staphylococcus aureus; experiment: Antimicrobial activity against Staphylococcus aureus DSM 346 at 6.7 to 67 ug/ml by serial dilution method; format: functional, organism-based
[15] = system: Mucor hiemalis; experiment: Antimicrobial activity against Mucor hiemalis DSM 2656 at 6.7 to 67 ug/ml by serial dilution method; format: functional, organism-based
[16] = system: Rhodotorula glutinis; experiment: Antimicrobial activity against Rhodotorula glutinis DSM 10134 at 6.7 to 67 ug/ml by serial dilution method; format: functional, organism-based
[17] = system: Pseudomonas aeruginosa; experiment: Antimicrobial activity against Pseudomonas aeruginosa DSM 50071 at 6.7 to 67 ug/ml by serial dilution method; format: functional, organism-based
[18] = system: Candida albicans; experiment: Antimicrobial activity against Candida albicans DSM 1665 at 6.7 to 67 ug/ml by serial dilution method; format: functional, organism-based
[19] = system: Eremothecium coryli; experiment: Antimicrobial activity against Nematospora coryli DSM 6981 by serial dilution method; format: functional
[20] = system: Trichosporon oleaginosus; experiment: Antimicrobial activity against Trichosporon oleaginosus DSM 11815 by serial dilution method; format: functional; conditions: Cutaneotrichosporon oleaginosum
[21] = system: Penicillium capsulatum; experiment: Antimicrobial activity against Penicillium capsulatum DSM 2210 at 6.7 to 67 ug/ml by serial dilution method; format: functional
[22] = system: Debaryomyces hansenii; experiment: Antimicrobial activity against Debaryomyces hansenii DSM 3428 at 6.7 to 67 ug/ml by serial dilution method; format: functional, organism-based
[23] = system: Paenibacillus polymyxa; experiment: Antimicrobial activity against Paenibacillus polymyxa DSM 36 at 6.7 to 67 ug/ml by serial dilution method; format: functional
[24] = system: Amorphotheca resinae; experiment: Antimicrobial activity against Hormoconis resinae DSM 1203 at 6.7 to 67 ug/ml by serial dilution method; format: functional, organism-based
[25] = Cytotoxicity against mouse L929 cells after 5 days; format: cell-based; conditions: read-out: LC50
[26] = system: Aspergillus clavatus; experiment: Antimicrobial activity against Aspergillus clavatus DSM 816 by serial dilution method; format: functional
[27] = system: Saccharomyces cerevisiae; experiment: Antimicrobial activity against Saccharomyces cerevisiae BTc-3A at 6.7 to 67 ug/ml by serial dilution method; format: functional, organism-based
[28] = system: Pimelobacter simplex; experiment: Antimicrobial activity against Nocardioides simplex DSM 20130 at 6.7 to 67 ug/ml by serial dilution method; format: functional
[29] = system: Pichia membranifaciens; experiment: Antimicrobial activity against Pichia membranifaciens DSM 21959 at 6.7 to 67 ug/ml by serial dilution method; format: functional, organism-based
[30] = system: Mycolicibacterium diernhoferi; experiment: Antimicrobial activity against Mycobacterium diernhoferi DSM 43524 at 6.7 to 67 ug/ml by serial dilution method; format: functional, organism-based
[31] = system: Nocardia sp.; experiment: Antimicrobial activity against Nocardia sp. DSM 43069 at 6.7 to 67 ug/ml by serial dilution method; format: functional, organism-based
[32] = system: Nocardia sp.; experiment: Antimicrobial activity against Nocardia sp. DSM 43069 by serial dilution method; format: functional
[33] = system: Eremothecium coryli; experiment: Antimicrobial activity against Nematospora coryli DSM 6981 at 6.7 to 67 ug/ml by serial dilution method; format: functional, organism-based
[34] = system: Schizosaccharomyces pombe; experiment: Antimicrobial activity against Schizosaccharomyces pombe DSM 70572 by serial dilution method; format: functional
[35] = system: Debaryomyces hansenii; experiment: Antimicrobial activity against Debaryomyces hansenii DSM 3428 by serial dilution method; format: functional
[36] = system: Pimelobacter simplex; experiment: Antimicrobial activity against Nocardioides simplex DSM 20130 by serial dilution method; format: functional
[37] = system: Aspergillus clavatus; experiment: Antimicrobial activity against Aspergillus clavatus DSM 816 at 6.7 to 67 ug/ml by serial dilution method; format: functional, organism-based
[38] = system: Trichosporon oleaginosus; experiment: Antimicrobial activity against Trichosporon oleaginosus DSM 11815 at 6.7 to 67 ug/ml by serial dilution method; format: functional; conditions: Cutaneotrichosporon oleaginosum
[39] = system: Saccharomyces cerevisiae; experiment: Antimicrobial activity against Saccharomyces cerevisiae BTc-3A by serial dilution method; format: functional, organism-based
[40] = system: Penicillium capsulatum; experiment: Antimicrobial activity against Penicillium capsulatum DSM 2210 by serial dilution method; format: functional
[41] = system: Wickerhamomyces anomalus; experiment: Antimicrobial activity against Pichia anomala DSM 6766 by serial dilution method; format: functional, organism-based
[42] = system: Amorphotheca resinae; experiment: Antimicrobial activity against Hormoconis resinae DSM 1203 by serial dilution method; format: functional, organism-based
[43] = system: Pichia membranifaciens; experiment: Antimicrobial activity against Pichia membranifaciens DSM 21959 by serial dilution method; format: functional, organism-based
[44] = system: Micrococcus luteus; experiment: Antimicrobial activity against Micrococcus luteus DSM 20030 by serial dilution method; format: functional
[45] = system: Paenibacillus polymyxa; experiment: Antimicrobial activity against Paenibacillus polymyxa DSM 36 by serial dilution method; format: functional
[46] = system: Escherichia coli; experiment: Antimicrobial activity against Escherichia coli DSM 1116 by serial dilution method; format: functional
[47] = system: Mycolicibacterium diernhoferi; experiment: Antimicrobial activity against Mycobacterium diernhoferi DSM 43524 by serial dilution method; format: functional

Row | Molecule | inhibition [1] | inhibition [3] | MIC [5] | inhibition [6] | MIC [8] | inhibition [10] | inhibition [13] | inhibition [14] | inhibition [17] | inhibition [18] | MIC [20] | inhibition [21] | inhibition [23] | inhibition [24] | CC50 at 120 h [25] | MIC [26] | inhibition [27] | inhibition [29] | inhibition [30] | MIC [32] | other results
1 | CC1=C(CCO)C(=O)c2ccccc2C1=O | inactive | inactive | 67 µg/mL (≈ 310 µM) | inactive | 67 µg/mL (≈ 310 µM) | inactive |  |  |  |  |  |  |  |  |  |  |  |  |  |  | MIC [2]: 67 µg/mL (≈ 310 µM); MIC [4]: 33.3 µg/mL (≈ 154 µM); MIC [7]: 33.3 µg/mL (≈ 154 µM); MIC [9]: 67 µg/mL (≈ 310 µM)
2 | GENTAMICIN |  |  |  |  |  |  |  |  |  |  |  |  |  |  |  |  |  |  |  |  | MIC [11]: 67 µg/mL
3 | CC(=O)/C=C/c1ccc2[nH]cc(CCO)c2c1 | inactive | inactive |  | inactive |  | inactive | inactive | inactive | inactive | inactive |  |  |  |  |  |  |  |  |  |  | inhibition [12]: inactive; inhibition [15]: inactive; inhibition [16]: inactive
4 | O=C(c1nccs1)c1c[nH]c2ccccc12 | inactive | inactive | 33.3 µg/mL (≈ 146 µM) | inactive | 67 µg/mL (≈ 294 µM) | inactive | inactive | inactive | inactive | inactive | 67 µg/mL (≈ 294 µM) | inactive | inactive | inactive | > 10 µg/mL | 33.3 µg/mL (≈ 146 µM) | inactive | inactive | inactive |  | MIC [19]: 33.3 µg/mL (≈ 146 µM); inhibition [22]: inactive; inhibition [28]: inactive; inhibition [31]: inactive
5 | C=C(C)/C=C/c1ccc2[nH]cc(C/C=N/O)c2c1 | inactive |  | 67 µg/mL (≈ 279 µM) | inactive | 67 µg/mL (≈ 279 µM) | inactive | inactive | inactive | inactive | inactive | 67 µg/mL (≈ 279 µM) | inactive | inactive | inactive | 6.8 µg/mL (≈ 28.3 µM) | 67 µg/mL (≈ 279 µM) | inactive | inactive | inactive | 33.3 µg/mL (≈ 139 µM) | inhibition [33]: inactive; MIC [34]: 67 µg/mL (≈ 279 µM); MIC [35]: 67 µg/mL (≈ 279 µM); MIC [36]: 33.3 µg/mL (≈ 139 µM)
6 | C=C(C)/C=C/c1ccc2[nH]cc(CCO)c2c1 | inactive | inactive |  | inactive |  | inactive | inactive | inactive | inactive | inactive |  | inactive | inactive | inactive | > 10 µg/mL |  | inactive | inactive | inactive |  | inhibition [33]: inactive; inhibition [22]: inactive; inhibition [37]: inactive; inhibition [15]: inactive; inhibition [38]: inactive; inhibition [28]: inactive; inhibition [16]: inactive; inhibition [31]: inactive
7 | NYSTATIN |  |  | 2.1 µg/mL |  | 0.52 µg/mL |  |  |  |  |  | 1 µg/mL |  |  |  |  | 2.1 µg/mL |  |  |  |  | MIC [19]: 4.2 µg/mL; MIC [34]: 33.3 µg/mL; MIC [39]: 1.7 µg/mL; MIC [35]: 6.7 µg/mL; MIC [40]: 16.6 µg/mL; MIC [41]: 4.2 µg/mL; MIC [42]: < 0.25 µg/mL; MIC [9]: 4.2 µg/mL; MIC [43]: 0.83 µg/mL
8 | CN(C)[C@@H]1C(O)=C(C(N)=O)C(=O)[C@@]2(O)C(O)=C3C(=O)c4c(O)cccc4[C@@](C)(O)[C@H]3[C@H](O)[C@@H]12.Cl [OXYTETRACYCLINE HYDROCHLORIDE] |  |  |  |  |  |  |  |  |  |  |  |  |  |  |  |  |  |  |  | 8.3 µg/mL | MIC [44]: 3.3 µg/mL; MIC [2]: 1 µg/mL; MIC [45]: 8.3 µg/mL; MIC [4]: 8.3 µg/mL; MIC [46]: 1 µg/mL; MIC [36]: 16.6 µg/mL; MIC [7]: 0.21 µg/mL; MIC [47]: < 0.25 µg/mL
9 | C=C(C)/C=C/c1ccc2[nH]cc(C/C=N\O)c2c1 | inactive |  | 67 µg/mL (≈ 279 µM) | inactive | 67 µg/mL (≈ 279 µM) | inactive | inactive | inactive | inactive | inactive | 67 µg/mL (≈ 279 µM) | inactive | inactive | inactive | 6.8 µg/mL (≈ 28.3 µM) | 67 µg/mL (≈ 279 µM) | inactive | inactive | inactive | 33.3 µg/mL (≈ 139 µM) | inhibition [33]: inactive; MIC [34]: 67 µg/mL (≈ 279 µM); MIC [35]: 67 µg/mL (≈ 279 µM); MIC [36]: 33.3 µg/mL (≈ 139 µM)
